Laboratory results published in ChEMBL document CHEMBL3044741, “Synthesis of novel biologically active methylene derivatives of sydnones” (Med Chem Res, 2013).
≈ marks a conversion by molar mass, not a printed value.

Legend:
[1] = Selectivity index, ratio of CC50 for human MT4 cells to IC50 for HIV2 ROD; format: functional
[2] = Cytotoxicity against human MT4 cells by MTT assay; format: cell-based
[3] = Selectivity index, ratio of CC50 for human MT4 cells to IC50 for HIV1 3B; format: functional
[4] = tested on: Human immunodeficiency virus 2; assay: Antiviral activity against HIV2 ROD infected in MT4 cells assessed as inhibition of virus-induced cytopathogenicity by MTT assay; format: functional, organism-based; conditions: Human immunodeficiency virus 2, ISOLATE ROD
[5] = tested on: Human alphaherpesvirus 3; assay: Antiviral activity against thymidine kinase-deficient Varicella-zoster virus infected in HEL cells assessed as reduction in plaque formation; format: functional, organism-based; conditions: Human alphaherpesvirus 3, HEL
[6] = tested on: Human immunodeficiency virus 1; assay: Antiviral activity against HIV1 3B infected in MT4 cells assessed as inhibition of virus-induced cytopathogenicity by MTT assay; format: functional, organism-based; conditions: Human immunodeficiency virus 1, 3B
[7] = tested on: Human alphaherpesvirus 3; assay: Antiviral activity against Varicella-zoster virus Oka expressing thymidine kinase infected in HEL cells assessed as reduction in plaque formation; format: functional, organism-based; conditions: Human alphaherpesvirus 3, strain Oka vaccine
[8] = Cytotoxicity against human HEL cells; format: cell-based
[9] = tested on: Cytomegalovirus; assay: Antiviral activity against Cytomegalovirus Davis in HEL cells assessed as reduction in plaque formation; format: functional, organism-based; conditions: Human betaherpesvirus 5, Davis
[10] = Cytotoxicity against human HEL cells assessed as alteration in cell morphology; format: cell-based
[11] = tested on: Cytomegalovirus; assay: Antiviral activity against Cytomegalovirus AD-169 infected in HEL cells assessed as reduction in plaque formation; format: functional, organism-based; conditions: Human betaherpesvirus 5, AD-169, HEL
[12] = tested on: Aspergillus niger; assay: Antifungal activity against Aspergillus niger MTCC 282; format: functional
[13] = tested on: Aspergillus clavatus; assay: Antifungal activity against Aspergillus clavatus MTCC 1323; format: functional
[14] = tested on: Candida albicans; assay: Antifungal activity against Candida albicans MTCC 227; format: functional
[15] = tested on: Aspergillus niger; assay: Antifungal activity against Aspergillus niger MTCC 282 at 250 ug/ml after 74 hrs by Kirby-Bauer method; format: functional; conditions: MTCC 282, 74 h, read-out: IZ
[16] = tested on: Aspergillus clavatus; assay: Antifungal activity against Aspergillus clavatus MTCC 1323 at 250 ug/ml after 74 hrs by Kirby-Bauer method; format: functional; conditions: MTCC 1323, 74 h, read-out: IZ
[17] = tested on: Candida albicans; assay: Antifungal activity against Candida albicans MTCC 227 at 250 ug/ml after 74 hrs by Kirby-Bauer method; format: functional; conditions: MTCC 227, 74 h, read-out: IZ
[18] = tested on: Pseudomonas aeruginosa; assay: Antibacterial activity against Pseudomonas aeruginosa MTCC 424 after 24 hrs by broth dilution method; format: functional; conditions: MTCC 424, 24 h
[19] = tested on: Streptococcus pyogenes; assay: Antibacterial activity against Streptococcus pyogenes MTCC 442 after 24 hrs by broth dilution method; format: functional; conditions: MTCC 442, 24 h
[20] = tested on: Escherichia coli; assay: Antibacterial activity against Escherichia coli MTCC 443 after 24 hrs by broth dilution method; format: functional; conditions: MTCC 443, 24 h
[21] = tested on: Staphylococcus aureus; assay: Antibacterial activity against Staphylococcus aureus MTCC 96 after 24 hrs by broth dilution method; format: functional; conditions: MTCC 96, 24 h
[22] = tested on: Pseudomonas aeruginosa; assay: Antibacterial activity against Pseudomonas aeruginosa MTCC 424 at 250 ug/ml after 24 hrs by Kirby-Bauer method; format: functional; conditions: MTCC 424, 24 h, read-out: IZ
[23] = tested on: Escherichia coli; assay: Antibacterial activity against Escherichia coli MTCC 443 at 250 ug/ml after 24 hrs by Kirby-Bauer method; format: functional; conditions: MTCC 443, 24 h, read-out: IZ
[24] = tested on: Streptococcus pyogenes; assay: Antibacterial activity against Streptococcus pyogenes MTCC 442 at 250 ug/ml after 24 hrs by Kirby-Bauer method; format: functional; conditions: MTCC 442, 24 h, read-out: IZ
[25] = tested on: Staphylococcus aureus; assay: Antibacterial activity against Staphylococcus aureus MTCC 96 at 250 ug/ml after 24 hrs by Kirby-Bauer method; format: functional; conditions: MTCC 96, 24 h, read-out: IZ

With `[O-]c1on[n+](-c2ccc(Cc3ccc(-[n+]4noc([O-])c4CN4CCN(c5cccc(Cl)c5Cl)CC4)cc3)cc2)c1CN1CCN(c2cccc(Cl)c2Cl)CC1` the “Ratio CC50/IC50” value [1] was under 1, the CC50 [2] was 20.8 µg/mL (≈ 25.3 µM) and the “Ratio CC50/IC50” value [3] was under 1. The IC50 [4] was over 20.8 µg/mL, the EC50 [5] was over 4 µg/mL and the IC50 [6] was over 20.8 µg/mL. It also gave an EC50 [7] of over 4 µg/mL, a CC50 [8] of 28.7 µg/mL (≈ 34.9 µM) and an EC50 [9] of over 20 µg/mL. The MCC [10] was 100 µg/mL, the EC50 [11] was 12.6 µg/mL (≈ 15.3 µM) and the MIC [12] was 250 µg/mL (≈ 304 µM). The MIC [13] was 1000 µg/mL (≈ 1220 µM), the MIC [14] was 1000 µg/mL (≈ 1220 µM) and the zone of inhibition at 250 µg/mL [15] was 23 mm. It also gave a zone of inhibition at 250 µg/mL [16] of 23 mm, a zone of inhibition at 250 µg/mL [17] of 21 mm and an MIC [18] of 250 µg/mL (≈ 304 µM). It also gave an MIC [19] of 200 µg/mL (≈ 243 µM), an MIC [20] of 125 µg/mL (≈ 152 µM) and an MIC [21] of 125 µg/mL (≈ 152 µM). It also gave a zone of inhibition at 250 µg/mL [22] of 17 mm, a zone of inhibition at 250 µg/mL [23] of 21 mm and a zone of inhibition at 250 µg/mL [24] of 18 mm. The zone of inhibition at 250 µg/mL [25] was 21 mm.
For `[O-]c1on[n+](-c2ccc(Cc3ccc(-[n+]4noc([O-])c4CN4CCN(C5=Nc6ccccc6Sc6ccccc65)CC4)cc3)cc2)c1CN1CCN(C2=Nc3ccccc3Sc3ccccc32)CC1`, the “Ratio CC50/IC50” value [1] was under 1, the CC50 [2] was 11.6 µg/mL (≈ 12.2 µM) and the “Ratio CC50/IC50” value [3] was under 1. For the same molecule, the IC50 [4] was over 11.6 µg/mL, the EC50 [5] was over 4 µg/mL and the IC50 [6] was over 11.6 µg/mL. The EC50 [7] was over 4 µg/mL, the CC50 [8] was 13.8 µg/mL (≈ 14.5 µM) and the EC50 [9] was over 20 µg/mL. For the same molecule, the MCC [10] was 100 µg/mL, the EC50 [11] was over 20 µg/mL and the MIC [12] was 1000 µg/mL (≈ 1050 µM). For the same molecule, the MIC [13] was 500 µg/mL (≈ 526 µM), the MIC [14] was 500 µg/mL (≈ 526 µM) and the zone of inhibition at 250 µg/mL [15] was 18 mm. The zone of inhibition at 250 µg/mL [16] was 23 mm, the zone of inhibition at 250 µg/mL [17] was 25 mm and the MIC [18] was 125 µg/mL (≈ 131 µM). For the same molecule, the MIC [19] was 250 µg/mL (≈ 263 µM), the MIC [20] was 250 µg/mL (≈ 263 µM) and the MIC [21] was 62.5 µg/mL (≈ 65.7 µM). The zone of inhibition at 250 µg/mL [22] was 21 mm, the zone of inhibition at 250 µg/mL [23] was 19 mm and the zone of inhibition at 250 µg/mL [24] was 18 mm. For the same molecule, the zone of inhibition at 250 µg/mL [25] was 23 mm.
With `Cc1ccc(-[n+]2noc([O-])c2CN2CCN(c3ccccc3)CC2)cc1` the “Ratio CC50/IC50” value [1] was under 1, the CC50 [2] was 13.2 µg/mL (≈ 37.8 µM) and the “Ratio CC50/IC50” value [3] was under 1. For the same molecule, the IC50 [4] was over 13.2 µg/mL, the EC50 [5] was over 4 µg/mL and the IC50 [6] was over 13.2 µg/mL. For the same molecule, the EC50 [7] was over 4 µg/mL, the CC50 [8] was 20 µg/mL (≈ 57.1 µM) and the EC50 [9] was over 20 µg/mL. It also gave an MCC [10] of 100 µg/mL, an EC50 [11] of over 20 µg/mL and an MIC [12] of 200 µg/mL (≈ 571 µM). The MIC [13] was 500 µg/mL (≈ 1430 µM), the MIC [14] was 500 µg/mL (≈ 1430 µM) and the zone of inhibition at 250 µg/mL [15] was 24 mm. The zone of inhibition at 250 µg/mL [16] was 21 mm, the zone of inhibition at 250 µg/mL [17] was 21 mm and the MIC [18] was 100 µg/mL (≈ 285 µM). It also gave an MIC [19] of 250 µg/mL (≈ 713 µM), an MIC [20] of 500 µg/mL (≈ 1430 µM) and an MIC [21] of 250 µg/mL (≈ 713 µM). It also gave a zone of inhibition at 250 µg/mL [22] of 20 mm, a zone of inhibition at 250 µg/mL [23] of 16 mm and a zone of inhibition at 250 µg/mL [24] of 18 mm. The zone of inhibition at 250 µg/mL [25] was 18 mm.
With `Cc1ccc(-[n+]2noc([O-])c2CN2CCN(C)CC2)cc1` the “Ratio CC50/IC50” value [1] was under 1, the CC50 [2] was 12.7 µg/mL (≈ 44 µM) and the “Ratio CC50/IC50” value [3] was under 1. The IC50 [4] was over 12.7 µg/mL, the EC50 [5] was over 20 µg/mL and the IC50 [6] was over 12.9 µg/mL. It also gave an EC50 [7] of over 20 µg/mL, a CC50 [8] of 25.6 µg/mL (≈ 88.8 µM) and an EC50 [9] of over 20 µg/mL. For the same molecule, the MCC [10] was 100 µg/mL, the EC50 [11] was over 20 µg/mL and the MIC [12] was 500 µg/mL (≈ 1730 µM). For the same molecule, the MIC [13] was 500 µg/mL (≈ 1730 µM), the MIC [14] was 500 µg/mL (≈ 1730 µM) and the zone of inhibition at 250 µg/mL [15] was 21 mm. For the same molecule, the zone of inhibition at 250 µg/mL [16] was 21 mm, the zone of inhibition at 250 µg/mL [17] was 18 mm and the MIC [18] was 100 µg/mL (≈ 347 µM). The MIC [19] was 100 µg/mL (≈ 347 µM), the MIC [20] was 250 µg/mL (≈ 867 µM) and the MIC [21] was 500 µg/mL (≈ 1730 µM). The zone of inhibition at 250 µg/mL [22] was 21 mm, the zone of inhibition at 250 µg/mL [23] was 18 mm and the zone of inhibition at 250 µg/mL [24] was 20 mm. The zone of inhibition at 250 µg/mL [25] was 16 mm.
With `Cc1ccc(-[n+]2noc([O-])c2CN2CCCCC2)cc1` the “Ratio CC50/IC50” value [1] was under 1, the CC50 [2] was 18.7 µg/mL (≈ 68.3 µM) and the “Ratio CC50/IC50” value [3] was under 1. The IC50 [4] was over 18.7 µg/mL, the EC50 [5] was over 20 µg/mL and the IC50 [6] was over 18.7 µg/mL. The EC50 [7] was over 20 µg/mL, the CC50 [8] was 28.5 µg/mL (≈ 104 µM) and the EC50 [9] was over 20 µg/mL. It also gave an MCC [10] of 100 µg/mL, an EC50 [11] of over 20 µg/mL and an MIC [12] of 500 µg/mL (≈ 1830 µM). The MIC [13] was 250 µg/mL (≈ 915 µM), the MIC [14] was 250 µg/mL (≈ 915 µM) and the zone of inhibition at 250 µg/mL [15] was 24 mm. It also gave a zone of inhibition at 250 µg/mL [16] of 25 mm, a zone of inhibition at 250 µg/mL [17] of 21 mm and an MIC [18] of 250 µg/mL (≈ 915 µM). It also gave an MIC [19] of 200 µg/mL (≈ 732 µM), an MIC [20] of 100 µg/mL (≈ 366 µM) and an MIC [21] of 500 µg/mL (≈ 1830 µM). For the same molecule, the zone of inhibition at 250 µg/mL [22] was 21 mm, the zone of inhibition at 250 µg/mL [23] was 21 mm and the zone of inhibition at 250 µg/mL [24] was 18 mm. For the same molecule, the zone of inhibition at 250 µg/mL [25] was 16 mm.
